Measured values: US8614201B2 (Janssen Pharmaceutica NV, priority 2009, dated 2013)

Molecular target: Human TRPA1 (Homo sapiens, UniProt O75762)
Experiment: Assay 1: In vitro cellular testing of TRPA1 modulation (CHO-TREx, Fluo-3 calcium fluorescence, AITC agonist)
Assay type: cell-based
Parameters: expressed in transfected cells; host or cells: CHO-TREx cells (Invitrogen), vector pcDNA4/TO
Details: CHO-TREx cells expressing human TRPA1; Fluo-3 fluorescence (FLIPR/Tetra); agonist 15 μM allyl isothiocyanate (AITC); 30 minute antagonist incubation
Summary of the method: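 Antagonist potency is the 50% reduction of the AITC (15 μM) calcium response, Hill-fitted against no-antagonist and 10 μM ruthenium red controls. Fluo-3-loaded (4 μM) CHO-TREx cells with tetracycline-inducible human TRPA1 got compound in HEPES saline pH 7.4 for 30 min, usually from 10 μM in three-fold dilutions.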

Human TRPA1, sequence (O75762 whole entry): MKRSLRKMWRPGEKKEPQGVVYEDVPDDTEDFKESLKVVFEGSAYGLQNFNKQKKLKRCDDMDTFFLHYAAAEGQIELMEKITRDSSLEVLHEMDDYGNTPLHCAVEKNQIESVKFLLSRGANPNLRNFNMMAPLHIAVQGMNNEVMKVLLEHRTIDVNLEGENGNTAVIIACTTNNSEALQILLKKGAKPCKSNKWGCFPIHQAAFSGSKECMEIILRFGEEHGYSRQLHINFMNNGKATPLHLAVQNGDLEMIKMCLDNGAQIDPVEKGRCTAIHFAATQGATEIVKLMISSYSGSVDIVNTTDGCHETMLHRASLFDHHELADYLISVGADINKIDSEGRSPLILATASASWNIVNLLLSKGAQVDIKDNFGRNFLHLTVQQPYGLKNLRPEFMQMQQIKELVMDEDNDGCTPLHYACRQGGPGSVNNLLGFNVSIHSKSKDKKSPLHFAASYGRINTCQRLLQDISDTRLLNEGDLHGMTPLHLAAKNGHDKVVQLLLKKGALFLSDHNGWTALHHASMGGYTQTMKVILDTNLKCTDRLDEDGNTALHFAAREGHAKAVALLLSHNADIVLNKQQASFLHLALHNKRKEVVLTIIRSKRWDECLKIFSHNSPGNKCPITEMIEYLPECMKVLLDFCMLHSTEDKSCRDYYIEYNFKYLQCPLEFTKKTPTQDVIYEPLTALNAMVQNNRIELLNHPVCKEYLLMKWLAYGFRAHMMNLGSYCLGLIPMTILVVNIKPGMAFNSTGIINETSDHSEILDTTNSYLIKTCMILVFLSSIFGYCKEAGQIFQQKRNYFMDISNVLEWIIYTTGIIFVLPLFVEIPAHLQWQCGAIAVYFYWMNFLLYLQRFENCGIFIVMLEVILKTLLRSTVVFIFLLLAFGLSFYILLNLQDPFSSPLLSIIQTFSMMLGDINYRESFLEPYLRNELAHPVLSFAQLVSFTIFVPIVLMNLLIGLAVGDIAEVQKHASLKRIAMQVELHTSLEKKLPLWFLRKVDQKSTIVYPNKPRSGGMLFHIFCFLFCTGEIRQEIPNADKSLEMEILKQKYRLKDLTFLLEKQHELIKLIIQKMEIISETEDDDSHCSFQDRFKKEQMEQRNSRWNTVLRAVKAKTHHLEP

| IC50 | Structure (SMILES) |
| --- | --- |
| 5090 nM | O=C(NCc1cc(NCc2ccccn2)nc(-c2ccc(C(F)(F)F)cc2)c1)[C@@H]1CC(F)(F)CN1S(=O)(=O)c1ccc(Cl)s1 [Example 382, 1-[(5-Chlorothiophen-2-yl)sulfonyl]-4,4-difluoro-N-({2-[(pyridin-2-ylmethyl)amino]-6-[4-(trifluoromethyl)phenyl]pyridin-4-yl}methyl)-L-prolinamide] |
| 488 nM | CC(C)CN1CCN(c2cc(CNC(=O)[C@@H]3CC(F)(F)CN3S(=O)(=O)c3ccc(Cl)s3)cc(-c3ccc(C(F)(F)F)cc3)n2)CC1 [Example 383, 1-[(5-Chlorothiophen-2-yl)sulfonyl]-4,4-difluoro-N-({2-[4-(2-methylpropyl)piperazin-1-yl]-6-[4-(trifluoromethyl)phenyl]pyridin-4-yl}methyl)-L-prolinamide] |
| 2220 nM | CNc1cc(CNC(=O)[C@@H]2CC(F)(F)CN2S(=O)(=O)c2ccc(Cl)s2)cc(-c2ccc(C(F)(F)F)cc2)n1 [Example 384, 1-[(5-Chlorothiophen-2-yl)sulfonyl]-4,4-difluoro-N-({2-(methylamino)-6-[4-(trifluoromethyl)phenyl]pyridin-4-yl}methyl)-L-prolinamide] |
| 978 nM | O=C(NCc1cc(NCc2ccncc2)nc(-c2ccc(C(F)(F)F)cc2)c1)[C@@H]1CCCN1S(=O)(=O)c1ccc(F)cc1 [Example 385, 1-[(4-Fluorophenyl)sulfonyl]-N-({2-[(pyridin-4-ylmethyl)amino]-6-[4-(trifluoromethyl)phenyl]pyridin-4-yl}methyl)-L-prolinamide] |
| 311 nM | CC(C)CN1CCN(c2cc(CNC(=O)[C@@H]3CC(F)(F)CN3S(=O)(=O)c3ccc(F)cc3)cc(-c3ccc(C(F)(F)F)cc3)n2)CC1 [Example 386, 4,4-Difluoro-1-[(4-fluorophenyl)sulfonyl]-N-({2-[4-(2-methylpropyl)piperazin-1-yl]-6-[4-(trifluoromethyl)phenyl]pyridin-4-yl}methyl)-L-prolinamide] |
| 3050 nM | O=C(NCc1cc(-c2ccc(C(F)(F)F)cc2)nc(N2CCN(Cc3ccccn3)CC2)c1)[C@@H]1CC(F)(F)CN1S(=O)(=O)c1ccc(F)cc1 [Example 387, 4,4-Difluoro-1-[(4-fluorophenyl)sulfonyl]-N-({2-[4-(pyridin-2-ylmethyl)piperazin-1-yl]-6-[4-(trifluoromethyl)phenyl]pyridin-4-yl}methyl)-L-prolinamide] |
| 3520 nM | O=C(NCc1cc(-c2ccc(C(F)(F)F)cc2)nc(N2CCN(Cc3ccccc3)CC2)c1)[C@@H]1CC(F)(F)CN1S(=O)(=O)c1ccc(F)cc1 [Example 388, N-({2-(4-Benzylpiperazin-1-yl)-6-[4-(trifluoromethyl)phenyl]pyridin-4-yl}methyl)-4,4-difluoro-1-[(4-fluorophenyl)sulfonyl]-L-prolinamide] |
| 95 nM | CC(C)CN1CCN(c2cc(CNC(=O)[C@@H]3C=CCN3S(=O)(=O)c3ccc(Cl)s3)cc(-c3ccc(C(F)(F)F)cc3)n2)CC1 [Example 389, (2S)-1-[(5-Chlorothiophen-2-yl)sulfonyl]-N-({2-[4-(2-methylpropyl)piperazin-1-yl]-6-[4-(trifluoromethyl)phenyl]pyridin-4-yl}methyl)-2,5-dihydro-1H-pyrrole-2-carboxamide] |
| 382 nM | CC(C)CN1CCN(c2cc(CNC(=O)[C@@H]3C=CCN3S(=O)(=O)c3ccc(F)cc3)cc(-c3ccc(C(F)(F)F)cc3)n2)CC1 [Example 390, (2S)-1-[(4-Fluorophenyl)sulfonyl]-N-({2-[4-(2-methylpropyl)piperazin-1-yl]-6-[4-(trifluoromethyl)phenyl]pyridin-4-yl}methyl)-2,5-dihydro-1H-pyrrole-2-carboxamide] |

The next lines start with the compound.

| Structure (SMILES) | IC50 |
| --- | --- |
| O=C(NCc1cc(-c2ccc(C(F)(F)F)cc2)nc(N2CCN(Cc3cccnc3)CC2)c1)[C@@H]1C=CCN1S(=O)(=O)c1ccc(F)cc1 [Example 365, (2S)-1-[(4-Fluorophenyl)sulfonyl]-N-({2-[4-(pyridin-3-ylmethyl)piperazin-1-yl]-6-[4-(trifluoromethyl)phenyl]pyridin-4-yl}methyl)-2,5-dihydro-1H-pyrrole-2-carboxamide] | 1690 nM |
| O=C(NCc1cc(-c2ccc(C(F)(F)F)cc2)nc(N2CCN(Cc3cccnc3)CC2)c1)[C@@H]1CC(F)(F)CN1S(=O)(=O)c1ccc(Cl)s1 [Example 366] | 1650 nM |
| O=C(NCc1cc(-c2ccc(C(F)(F)F)cc2)nc(N2CCN(Cc3ccccc3)CC2)c1)[C@@H]1CCCN1S(=O)(=O)c1ccc(Cl)s1 [Example 367, N-({2-(4-Benzylpiperazin-1-yl)-6-[4-(trifluoromethyl)phenyl]pyridin-4-yl}methyl)-1-[(5-chlorothiophen-2-yl)sulfonyl]-L-prolinamide] | 18 nM |
| O=C(NCc1cc(-c2ccc(C(F)(F)F)cc2)nc(N2CCN(Cc3ccccc3)CC2)c1)[C@@H]1C=CCN1S(=O)(=O)c1ccc(Cl)s1 [Example 368, (2S)—N-({2-(4-Benzylpiperazin-1-yl)-6-[4-(trifluoromethyl)phenyl]pyridin-4-yl}methyl)-1-[(5-chlorothiophen-2-yl)sulfonyl]-2,5-dihydro-1H-pyrrole-2-carboxamide] | 418 nM |
| CC(C)CN1CCN(c2cc(CNC(=O)[C@@H]3CCCN3S(=O)(=O)c3ccc(Cl)s3)cc(-c3ccc(C(F)(F)F)cc3)n2)CC1 [Example 369, 1-[(5-Chlorothiophen-2-yl)sulfonyl]-N-({2-[4-(2-methylpropyl)piperazin-1-yl]-6-[4-(trifluoromethyl)phenyl]pyridin-4-yl}methyl)-L-prolinamide] | 79 nM |
| CC(C)CN1CCN(c2cc(CNC(=O)[C@@H]3CCCN3S(=O)(=O)c3ccc(F)cc3)cc(-c3ccc(C(F)(F)F)cc3)n2)CC1 [Example 370, 1-[(4-Fluorophenyl)sulfonyl]-N-({2-[4-(2-methylpropyl)piperazin-1-yl]-6-[4-(trifluoromethyl)phenyl]pyridin-4-yl}methyl)-L-prolinamide] | 115 nM |
| O=C(NCc1cc(NCc2cccnc2)nc(-c2ccc(C(F)(F)F)cc2)c1)[C@@H]1CCCN1S(=O)(=O)c1ccc(Cl)s1 [Example 371, 1-[(5-Chlorothiophen-2-yl)sulfonyl]-N-({2-[(pyridin-3-ylmethyl)amino]-6-[4-(trifluoromethyl)phenyl]pyridin-4-yl}methyl)-L-prolinamide] | 2060 nM |
| CNc1cc(CNC(=O)[C@@H]2C=CCN2S(=O)(=O)c2ccc(F)cc2)cc(-c2ccc(C(F)(F)F)cc2)n1 [Example 372, (2S)-1-[(4-Fluorophenyl)sulfonyl]-N-({2-(methylamino)-6-[4-(trifluoromethyl)phenyl]pyridin-4-yl}methyl)-2,5-dihydro-1H-pyrrole-2-carboxamide] | 1610 nM |
| O=C(NCc1cc(-c2ccc(C(F)(F)F)cc2)nc(N2CCN(Cc3ccccc3)CC2)c1)[C@@H]1CCCN1S(=O)(=O)c1ccc(F)cc1 [Example 373, N-({2-(4-Benzylpiperazin-1-yl)-6-[4-(trifluoromethyl)phenyl]pyridin-4-yl}methyl)-1-[(4-fluorophenyl)sulfonyl]-L-prolinamide] | 43 nM |
| O=C(NCc1cc(NCc2ccccn2)nc(-c2ccc(C(F)(F)F)cc2)c1)[C@@H]1CC(F)(F)CN1S(=O)(=O)c1ccc(F)cc1 [Example 374, 4,4-Difluoro-1-[(4-fluorophenyl)sulfonyl]-N-({2-[(pyridin-2-ylmethyl)amino]-6-[4-(trifluoromethyl)phenyl]pyridin-4-yl}methyl)-L-prolinamide] | 2090 nM |
| O=C(NCc1cc(-c2ccc(C(F)(F)F)cc2)nc(N2CCN(Cc3ccccn3)CC2)c1)[C@@H]1CC(F)(F)CN1S(=O)(=O)c1ccc(Cl)s1 [Example 375, 1-[(5-Chlorothiophen-2-yl)sulfonyl]-4,4-difluoro-N-({2-[4-(pyridin-2-ylmethyl)piperazin-1-yl]-6-[4-(trifluoromethyl)phenyl]pyridin-4-yl}methyl)-L-prolinamide] | 1940 nM |
| CN(C)c1cc(CNC(=O)[C@@H]2CC(F)(F)CN2S(=O)(=O)c2ccc(Cl)s2)cc(-c2ccc(C(F)(F)F)cc2)n1 [Example 376, 1-[(5-Chlorothiophen-2-yl)sulfonyl]-N-({2-(dimethylamino)-6-[4-(trifluoromethyl)phenyl]pyridin-4-yl}methyl)-4,4-difluoro-L-prolinamide] | 241 nM |
| O=C(NCc1cc(-c2ccc(C(F)(F)F)cc2)nc(N2CCN(Cc3ccccc3)CC2)c1)[C@@H]1CC(F)(F)CN1S(=O)(=O)c1ccc(Cl)s1 [Example 377, N-({2-(4-Benzylpiperazin-1-yl)-6-[4-(trifluoromethyl)phenyl]pyridin-4-yl}methyl)-1-[(5-chlorothiophen-2-yl)sulfonyl]-4,4-difluoro-L-prolinamide] | 4710 nM |
| CNc1cc(CNC(=O)[C@@H]2C=CCN2S(=O)(=O)c2ccc(Cl)s2)cc(-c2ccc(C(F)(F)F)cc2)n1 [Example 379, (2S)-1-[(5-Chlorothiophen-2-yl)sulfonyl]-N-({2-(methylamino)-6-[4-(trifluoromethyl)phenyl]pyridin-4-yl}methyl)-2,5-dihydro-1H-pyrrole-2-carboxamide] | 380 nM |
| O=C(NCc1cc(NCc2ccccn2)nc(-c2ccc(C(F)(F)F)cc2)c1)[C@@H]1C=CCN1S(=O)(=O)c1ccc(F)cc1 [Example 380, (2S)-1-[(4-Fluorophenyl)sulfonyl]-N-({2-[(pyridin-2-ylmethyl)amino]-6-[4-(trifluoromethyl)phenyl]pyridin-4-yl}methyl)-2,5-dihydro-1H-pyrrole-2-carboxamide] | 523 nM |
| O=C(NCc1cc(-c2ccc(C(F)(F)F)cc2)nc(N2CCN(Cc3ccncc3)CC2)c1)[C@@H]1CC(F)(F)CN1S(=O)(=O)c1ccc(Cl)s1 [Example 381, 1-[(5-Chlorothiophen-2-yl)sulfonyl]-4,4-difluoro-N-({2-[4-(pyridin-4-ylmethyl)piperazin-1-yl]-6-[4-(trifluoromethyl)phenyl]pyridin-4-yl}methyl)-L-prolinamide] | 729 nM |
